Measured values published in PMC11053681, “Gold(I) and Silver(I) Complexes Containing Hybrid Sulfonamide/Thiourea Ligands as Potential Leishmanicidal Agents” (Pharmaceutics, 2024).
Read-outs that look alike come from different tables or passages of the source.

What was measured:
LbOYE [1] = target: T1, LbOYE (Leishmania braziliensis, UniProt A4H6Z3); experiment: Suppression of intrinsic tryptophan fluorescence of LbOYE; format: binding; settings: 25 °C
Description: The recombinant LbOYE protein was produced using the methodology previously described. Briefly, the protein was expressed in strains of bacterial Escherichia coli BL21(DE3) through induction by IPTG using the pET28a:LbOYE vector. The enzyme was purified through a chromatography step of capture by nickel affinity, as the pET28a vector allows the expression of a polyhistidine fusion peptide, located at the N-terminal end of the protein. After affinity purification, the polyhistidine tail was excised by “overnight” incubation with thrombin, and the second purification step was performed using size exclusion chromatography. Purification was evaluated by SDS-PAGE and protein concentration was estimated by spectrophotometry.
The emission spectra of the intrinsic fluorescence of the tryptophan were recorded using a Shimadzu F-4500 spectrofluorometer in the range of 310–420 nm, with opening of slits of excitation and emission at 5.0 nm and λex = 295 nm. Interaction analyzes between LbOYE and ligands were performed at λmax = 333 nm.
The compounds were solubilized in DMSO and then we made successive dilutions in a Tris-HCl 25 mmol L^−1 buffer, pH 8.0, containing 100 mmol L^−1 of NaCl. For all experiments, the final concentration of DMSO was kept constant and equal to 2.5%. Solutions with increasing concentrations of ligand and constant concentration of LbOYE (1 µmol L^−1) were prepared, which were kept at 25 °C for a period of 1h before acquisition of fluorescence emission spectra.
The results were obtained from the fluorescence emission spectra of the intrinsic tryptophan probe in the presence of the compounds HL1^Ch, HL3^FPh, HL5^NO2Ph, [Au(HL1^Ch)2]Cl and [Ag(HL3^FPh)2]NO3. The bonding parameters were determined by the Hill plot, obtaining the dissociation constant (Kd) through the non-linear adjustment of the saturation curve to the experimental data. The double-log plot was used to determine the bonding constant and the number of bonding sites (n). It also allows the calculation of the bonding constant (Kb) and Kd from 1/Kb.
Equation (1)—Hill’s equation:(1) F0−F/F0=[L]/L+Kd
Equation (2)—Double-log:(2) logF0−F/F0=nlogKb−nlog1/L−(F0−F)[P0]/F
Equation (3)—Equation of Stern–Volmer:(3) F0/F=1+KSV[L]
The study of fluorescence quenching can be affected when the ligand has absorption bands that coincide with excitation and emission wavelengths of fluorescence. This interference is called the internal filter effect, which can be minimized using the procedure described by Equation (4). Fobs and Fcor are the fluorescence intensities at 333 nm measured and corrected, respectively; l represents the optical step where the absorption and emission of light occurs and C0 is the concentration of the ligand.
For the correction of the internal filter effect, were used the molar absorptivity coefficient values in the excitation (295 nm) and emission (333 nm) lengths, [λ/ε (L mol^−1 cm^−1)]; HL1^Ch (εex = 373 and εem = 117), HL3^FPh (εex = 1191 and εem = 57), HL5^NO2Ph (εex = 6162 and εem = 9124), Au1 (εex = 7045 and εem = 4008) and Ag3 (εex = 9431 and εem = 3281).

Leishmania infantum = experiment: Leishmanicidal activity against promastigotes (resazurin); format: cell-based; settings: promastigote form, 24 h treatment, resazurin; read-out: IC50 L. infantum
Procedure, shortened: (§1)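 Stationary-phase (day 5) metacyclic promastigotes were purified by centrifugation and plated at 1 × 10^7 parasites per well in Schneider medium. Compounds were tested in triplicate from 500 µM down to 3.9 µM by serial dilution for 24 h. Viability was read by resazurin fluorescence.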

Leishmania braziliensis = experiment: as above; format: cell-based
Procedure, shortened: as §1

LbOYE [2] = target: T1, LbOYE; experiment: LbOYE enzyme kinetics (NADPH decay at 340 nm); format: biochemical; settings: 20 µmol L^−1 compound, 1 µmol L^−1 LbOYE, 100 µmol L^−1 NADPH; substrates NEM and O2
Protocol: The initial rates were obtained through the decay of the band at 340 nm referring to the maximum absorption of the NADPH (Nicotinamide Adenine Dinucleotide Phosphate) reducer, as previously reported. Solutions containing 1 µmol L^−1 of LbOYE, DMSO or 20 µmol L^−1 of the tested compounds from a stock solution at a concentration of 5 mmol L^−1 in DMSO were prepared in the presence and absence of the substrate N-Ethylmaleimide (NEM). These solutions were left for 30 min at room temperature. After 30 min, the NADPH reducer was added at a final concentration of 100 µmol L^−1.
Figure 7 Initial velocity (V0) for the reaction between 1 µmol L^−1 of LbOYE and 100 µmol L^−1 of NADPH in the presence of DMSO (control) or 20 µmol L^−1 of the compounds tested. Using (A) 100 µmol L^−1 of NEM in the presence of O2 and (B) absence of NEM in the presence of O2. Experiments carried out in phosphate buffer 25 mmol L^−1 pH 7.0, NaCl 100 mmol L^−1.

T1 sequence (A4H6Z3 entry or part of it): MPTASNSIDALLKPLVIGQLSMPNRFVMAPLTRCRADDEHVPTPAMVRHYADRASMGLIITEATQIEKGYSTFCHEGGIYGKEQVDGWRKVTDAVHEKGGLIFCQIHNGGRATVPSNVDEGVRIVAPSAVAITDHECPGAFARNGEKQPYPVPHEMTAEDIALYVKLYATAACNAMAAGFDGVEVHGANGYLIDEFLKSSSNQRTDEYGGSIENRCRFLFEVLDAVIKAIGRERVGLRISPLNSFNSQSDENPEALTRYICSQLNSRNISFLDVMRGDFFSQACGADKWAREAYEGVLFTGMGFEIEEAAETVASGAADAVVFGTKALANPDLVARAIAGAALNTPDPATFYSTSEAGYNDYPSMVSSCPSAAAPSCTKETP

Kd (LbOYE [1]; Hill plot (n = 1), Equation (1), Tris-HCl pH 8.0, 2.5% DMSO, read-out: Kd * (Hill plot)): 9.6 ± 0.7 µM
Ksv *** (Stern–Volmer constant) (LbOYE [1]; Stern–Volmer, Equation (3)): 23 ± 2 × 10^4
Kd (LbOYE [1]; double log, Equation (2), Kd = 1/Kb, read-out: Kd ** (double log) (converted)): 11.2 ± 0.3 µM
n ** (number of bonding sites) (LbOYE [1]; double log, Equation (2)): 2.0 ± 0.1
SMILES: Cc1ccc(S(=O)(=O)NNC(Nc2ccc(F)cc2)=[S][Ag+][S]=C(NNS(=O)(=O)c2ccc(C)cc2)Nc2ccc(F)cc2)cc1.O=[N+]([O-])[O-] [Ag3, [Ag(HL3^FPh)2]NO3]
IC50 (Leishmania infantum): 92.83 ± 0.072 µM
IC50 (Leishmania braziliensis; promastigote form, 24 h treatment, resazurin, read-out: IC50 L. braziliensis): 233.9 ± 0.031 µM
SI L. braziliensis (Leishmania braziliensis; selectivity index = CC50 (Vero) / IC50 (L. braziliensis promastigotes)): >2.14
Inhibition of LbOYE reaction (initial velocity V0), in words (LbOYE [2]): capable of inhibiting the reaction of the enzyme both with the NEM and for O2
